# Laboratory results reported in patent US10709678B2, “Methods of reducing risk of cardiovascular disease” (NEUROBO PHARMACEUTICALS, INC., priority 2012, dated 2020).
# Read-outs that look alike come from different tables or passages of the source.
# What was measured:
# [1] = system: hypercholesterolemic patients; assay: Framingham Risk Score, baseline vs week 8, in the same phase 2 study; assay type: in vivo, human; conditions: 300 mg and 900 mg QD
# Protocol: As used herein, references to 10-year risk are calculated using the Framingham point scores as provided in Tables 1 and 2, for men and women respectively. The patients' Framingham Risk Score was calculated at baseline. The Framingham risk score calculation takes into account: age, gender, systolic blood pressure level (+/−treatment), HDL cholesterol level, and smoker status. […] Significance was determined using the SAS Proc Univariate which provides p values from the student's paired t-test and the Wilcoxon Signed Rank test.
# [2] = system: hypercholesterolemic patients; assay: 8-week double-blind placebo-controlled phase 2 study of gemcabene added to a stable statin dose: LDL-C; assay type: in vivo, human; conditions: on stable statin, placebo reduction 7.9%, p<0.01
# Protocol: An 8-week, double-blind, placebo-controlled, randomized, multicenter, phase 2 study in hypercholesterolemic patients on a stable dose of statin (on statin therapy for at least the previous 3 months) was conducted to evaluate the efficacy of gemcabene in the further reduction of LDL-C in these patients.
# A total of 66 hypercholesterolemic patients were treated in this study: 22 randomized to gemcabene 900 mg, 20 randomized to gemcabene 300 mg, and 24 randomized to placebo.
# Patients included in the study were men and women ≥18 and ≤65 years of age with hypercholesterolemia and an LDL-C level at screening of ≥130 mg/dL while on a stable (3-months) dose of a statin. Patients were required to maintain their current dose of statin throughout the course of the study. […]
# Percent change from base line was calculated as follows: Percent Change From Baseline=[(final value−baseline value)/baseline value]×100%. […]
# [3] = system: LDL-C; conditions: cited from earlier work
# [4] = system: LDL-C; conditions: monotherapy, ezetimibe 10 mg; cited from earlier work
# [5] = system: obese female Zucker rats; conditions: cited from earlier work
# [6] = system: LDL-C; conditions: lovastatin 40 mg twice daily; cited from earlier work
structure (smiles),measurement,setting,value
"CC(C)(CCCCOCCCCC(C)(C)C(=O)O)C(=O)O [gemcabene, 6,6′-oxybis-(2,2′-dimethylhexanoic acid)]",Framingham Risk Score compared with statin treatment alone,[1],significantly reduced
same,"LDL-C lowered from baseline at Week 8, median",[2]; 300 mg per day,24.8%
same,"LDL-C lowered from baseline at Week 8, median",[2]; 900 mg per day,31.0%
same,decrease in LDL-C beyond atorvastatin monotherapy,"[3]; 300 mg gemcabene with atorvastatin (aggregated over 10, 40 and 80 mg)",3.8%
same,decrease in LDL-C beyond atorvastatin monotherapy,"[3]; 600 mg gemcabene with atorvastatin (aggregated over 10, 40 and 80 mg)",6.1%
same,decrease in LDL-C beyond atorvastatin monotherapy,"[3]; 900 mg gemcabene with atorvastatin (aggregated over 10, 40 and 80 mg)",7.4%
O=C1[C@H](CC[C@H](O)c2ccc(F)cc2)[C@@H](c2ccc(O)cc2)N1c1ccc(F)cc1 [ezetimibe],LDL-C lowered,[4],16%
CC(C)(CCCCCC(O)CCCCCC(C)(C)C(=O)O)C(=O)O [ESP 55016],HDL-C,[5],raising
same,non-HDL-C,[5],effective in lowering
same,triglyceride levels,[5],decreasing
CC[C@H](C)C(=O)O[C@H]1C[C@@H](C)C=C2C=C[C@H](C)[C@H](CC[C@@H]3C[C@@H](O)CC(=O)O3)[C@H]21 [lovastatin],LDL-C lowered,[6],35.5%
